Data: US20100034839A1, “METHODS FOR TREATING VIRAL DISORDERS” (priority 2008, published 2010)

How the values were obtained:
[1] = test system: cell surface CLIP on Raji and Daudi cells; assay: Competition of synthetic peptides with cell surface CLIP (Fitc anti-human CLIP); type: cell-based; conditions: biotinylated competing peptide
Excerpt: Based on a computational model comparing the peptide content of TNP mixture and identifying those peptides that would have the likeliest ability to compete for the peptide/antigen binding site for MHC class II (human HLA-DR, DP, and DQ), several peptide candidates were synthesized and examined for activity. The purpose of the study was to determine if synthetic peptides can compete for binding with CLIP peptides as measured with either Fitc anti-human CLIP antibody or, comparatively in the case of biotinylated peptides, with Streptavidin.
Cell Culture Conditions: The Raji and Daudi cell lines were purchased from American Type Culture Collection, were thawed, and grown in RPMI 1640 medium supplemented with standard supplements, including 10% fetal calf serum, gentamycin, penicillin, streptomycin, sodium pyruvate, HEPES buffer, 1-glutamine, and 2-ME.
Protocol: Cells were plated into a 12 well plate with 3 mls total volume containing approximately 1.5×10^6/well for Daudi cells and 3.0×10^6/well for Raji cells. Treatment groups included no treatment as control; MKN 3 and MKN 5 at 50 microMolar final concentration based on the reported molarity of the synthesized compounds.
The cells were incubated at 37° C. in an atmosphere containing 5% CO2 and approximately 92% humidity. The cells were incubated for 4 and 24 hours. At each time point, the cells from that experimental time were harvested and stained for flow cytometric analysis of cell surface expression of CLIP (MHC Class II invariant peptide, human) by using the commercially available (Becton/Dickinson/PHarmingen) anti-human CLIP Fitc. Catalogue #555981 versus Streptavidin.
Harvested cells were stained using standard staining procedure that called for a 1:100 dilution of Fitc-anti-human CLIP or isotype control versus 1:200 dilution of the commercially prepared Streptavidin. Following staining on ice for 25 minutes, cells were washed with PBS/FCS and resuspended in 100 microliters and added to staining tubes containing 400 microliters of PBS. Samples were acquired and analyzed on a Coulter Excel Flow Cytometer.
In the Histogram analyses of FIGS. 5-7 the Y axis represents cell number of the 5000 live cells versus the X axis which is a reflection of relative Fitc fluorescence versus Streptavidin-PE (eBioscience, Cat. #12-4317) that will bind with high affinity to cell-bound biotinylated peptides. The distance between the histogram from the isotype control staining versus the histogram reflecting the specific stain and is a measure of level of cell surface CLIP or the biotinylated peptide when stained with Streptavidin on a population of live Raji or Daudi cells as indicated.

[2] = test system: CLIP^+ B cells in human PBMC; assay: Peptide replacement of CLIP on R848-activated human PBMC B cells; type: cell-based; conditions: PBMC of two donors cultured with R848 for 48 hours with peptide
Protocol: FIG. 13 depicts TLR activation results in ectopic CLIP expression on human B cells from peripheral blood mononuclear cells (PBMC) cultures. FIG. 13a: human PBMC from five donors were cultured for 24 hours with toll ligands (CpG-ODN, LPS, Pam3Cys, and Poly I:C) and were stained with a pan anti-HLA-DR-FITC antibody (values of isotype controls were subtracted from the specific stains, ΔMFI). FIG. 13b: cells were stained using anti-human CLIP-FITC versus CD19-PE (values of isotype controls were subtracted from the specific stains, ΔMFI). For FIGS. 13a & 13b: nil vs. CpG p=0.06821; nil vs. LPS p=0.0390; nil vs. PAM p=0.0124. FIG. 13c: cells were stained for CLIP-FITC versus CD19-PE as described for FIG. 13b. The data represent the percent of total PBMC that are CLIP+ B cells subsequent to treatment. For FIG. 13c: nil vs. CpG p=0.0058; nil vs. LPS p=0.0254. […]
PBMC were prepared from a total of seven adult normal donors, five for examining the effects of TLR binding on the percentage of ectopic CLIP^+ B cells and changes in mean fluorescence intensity of the CLIP staining resulting from TLR stimulation with CpG-ODN, LPS, Pam-3-Cys, and Poly I:C. […] Cells were analyzed using either a BD FacsCalibur, for the five samples, or a Coulter FC500 for the two tissue typed samples. […]

FRIMAVLAS was tested, and the “cell surface bound CLIP” value ([1]; 4 hours) was “small decreases in cell surface bound CLIP”, the “cell surface bound CLIP” value ([1]; 24 hours) was “significant decreases” and the “percentage of CLIP^+ B cells and level of CLIP per B cell” value [2] was “reduced the percentage of CLIP^+ B cells and the level of CLIP per B cell to pre-treatment levels”.
